# From the NIST ThermoML archive (doi:10.1021/je060348v)
# Numbers after ± are expanded uncertainties.
# Conditions: Crystal; visual observation
structure (smiles),measurement,value
OC[C@@H](O)[C@H](O)[C@@H](O)CO [xylitol],Normal melting temperature,94.50 ± 1 °C
